Assay results taken from US8927588B2, “Imidazole carbonyl compound” (Daiichi Sankyo Company, Limited, priority 2007, dated 2015).
≈ marks a conversion by molar mass, not a printed value. Like-named read-outs stand apart in the source and are kept apart here.

Experiments:
Haemophilus influenzae = test: Sensitivity of bacteria, broth microdilution method (MIC); format: cell-based; conditions: medium obtained by mixing hemophilus test medium with human serum at a ratio of 1:1
Protocol: The antibacterial activity of the compounds of the present invention was tested by sensitivity tests by the broth microdilution method. The assay was carried out according to the latest CLSI guidelines for managing the procedures of sensitivity tests: “M7-A7 Methods for Dilution Antimicrobial Susceptibility Tests for Bacteria That Grow Aerobically; Approved Standard—Seventh Edition (2006)”. Test strains were grown on appropriate agar plates overnight. A broth containing the test compound serially two-fold diluted was dispensed at 100 μL to each well of a 96-well microplate. As a growth control, a well with a broth not containing the test compound was also prepared. Colonies grown on the plates were suspended in saline, adjusted to 0.5 McFarland (OD625=0.08 to 0.10) using a colorimeter, and then diluted ten-fold with saline. The bacterial suspension was inoculated at 4 μL into each well of the microplate using a bacterial suspension inoculation apparatus. The inoculated microplate was incubated at 35° C. overnight (about 20 hours). The growth condition was observed by the naked eye, and the minimum concentration to inhibit bacterial proliferation was defined as a minimum inhibitory concentration (MIC).

HeLa cell proliferation = test: Cytotoxicity test, HeLa cell proliferation (MTS-PMS); format: cell-based; conditions: human, HeLa cells, 48 hours incubation, read-out: IC50 (cytotoxicity, proliferation inhibition)
Protocol: 50 μL of a HeLa cell solution containing 80000 cells/mL was inoculated into each well of a 96-well microplate, and the mixture was incubated at 37° C. in a 5% carbon dioxide incubator for 24 hours. Thereafter, a medium containing the test compound serially four-fold diluted was added at 50 μL to each well, and the mixture was incubated at 37° C. in a 5% carbon dioxide incubator for 48 hours. As a control with an inhibition rate of 0%, a well not containing the test compound was also prepared. Following washing with phosphate buffered saline, a MTS [3-(4,5-dimethylthiazol-2-yl)-5-(3-carboxymethoxyphenyl)-2-(4-sulphophenyl)-2H-tetrazolium, inner salt]-PMS (phenazine methosulfate) coloring reagent solution was added, and the mixture was allowed to stand at 37° C. in a 5% carbon dioxide incubator for 1.5 hours. Thereafter, the absorbance at 490 nm was determined. The 50% inhibition concentration (IC50) was calculated from the proliferation inhibition rate (%) in the presence of four different concentrations of the test compound.

[1] = molecular target: ParE of Haemophilus influenzae (Haemophilus influenzae, UniProt P43703); test: ATP hydrolysis inhibition assay (pyruvate kinase/lactate dehydrogenase coupled), ParE of Haemophilus influenzae; format: biochemical
ParE of Haemophilus influenzae, sequence (P43703 whole entry): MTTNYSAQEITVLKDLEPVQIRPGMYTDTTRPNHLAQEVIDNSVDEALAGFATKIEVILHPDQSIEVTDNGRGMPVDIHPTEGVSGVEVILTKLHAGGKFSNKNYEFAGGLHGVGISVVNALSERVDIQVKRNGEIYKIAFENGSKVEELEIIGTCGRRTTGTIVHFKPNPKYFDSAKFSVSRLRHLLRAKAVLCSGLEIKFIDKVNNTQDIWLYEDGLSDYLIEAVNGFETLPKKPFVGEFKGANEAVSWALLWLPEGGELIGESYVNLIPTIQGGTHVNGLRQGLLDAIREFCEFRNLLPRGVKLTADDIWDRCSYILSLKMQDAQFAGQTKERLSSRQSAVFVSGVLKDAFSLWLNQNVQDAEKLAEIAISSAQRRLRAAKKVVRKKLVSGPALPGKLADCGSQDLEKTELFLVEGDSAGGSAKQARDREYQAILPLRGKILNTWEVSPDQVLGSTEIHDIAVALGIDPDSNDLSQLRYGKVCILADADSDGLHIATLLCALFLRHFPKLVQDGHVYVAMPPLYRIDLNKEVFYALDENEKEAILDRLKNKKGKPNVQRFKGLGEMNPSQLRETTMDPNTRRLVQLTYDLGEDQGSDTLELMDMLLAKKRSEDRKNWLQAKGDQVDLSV
Protocol: The ATP hydrolysis activity of GyrB and ParE was determined by correlating it with ADP production and NADH oxidation mediated by pyruvate kinase/lactate dehydrogenase. This method has been previously reported (Tamura, J. K. and Gellert, M. 1990, J. Biol. Chem. 265:21342-21349).
The ATP hydrolysis assay was carried out in a buffer solution containing final concentrations of 100 mM Tris-HCl (pH 7.5), 150 mM KCl, 1.5 mM MgCl2, 0.4 mM nicotinamide adenine dinucleotide (NADH), 2.5 mM phosphoenolpyruvate, 1 mM DTT, 15 U/ml pyruvate kinase, 10.5 U/ml lactate dehydrogenase and 1 mU/ml enzyme (GyrB or ParE of Streptococcus pneumoniae or Haemophilus influenzae) (provided that the concentration of KCl was 25 mM and the concentration of MgCl2 was 10 mM in the case of ParE of Haemophilus influenzae). A solution of the test compound serially four-fold diluted in DMSO:MeOH (7:3) was added at a final concentration of 5% (v/v). […] ATP was added at a final concentration of 1 mM; after mixing, the absorbance at 340 nm (amount of NADH) was determined (provided that the final ATP concentration was 0.3 mM in the case of ParE of Haemophilus influenzae). The reaction solution was incubated at 30° C. for two hours, and then the absorbance at 340 nm was determined. The ATP hydrolysis inhibition rate (%) was calculated from the difference in absorbance before and after the incubation (amount of NADH oxidized). […]

[2] = Solubility in water (JP1 fluid / JP2 fluid); format: physicochemical; conditions: thermodynamic from solid, room temperature

CO[C@H]1CN(c2nc3cccc(C(=O)O)c3s2)CC[C@H]1NC(=O)c1nc(Cl)c(C)[nH]1 (racemic) [Example 8, cis(±)-2-(4-{[(4-Chloro-5-methyl-1H-imidazol-2-yl)carbonyl]amino}-3-methoxypiperidin-1-yl)-1,3-benzothiazole-7-carboxylic acid]
MIC (Haemophilus influenzae): 4 µg/mL | IC50 at 48 h (HeLa cell proliferation): > 200 µg/mL | IC50 [1]: 131 nM | solubility ([2]; pH 1.2, simulated gastric fluid, 1st fluid for the disintegration test of the Japanese Pharmacopoeia, read-out: solubility in JP1 fluid): 100 µg/mL (≈ 222 µM) | solubility ([2]; pH 6.8, aqueous buffer, 2nd fluid for the disintegration test of the Japanese Pharmacopoeia, read-out: solubility in JP2 fluid): 720 µg/mL (≈ 1600 µM)
